Test results reported in patent US11180462B2, “Microbiocidal oxadiazole derivatives” (SYNGENTA PARTICIPATIONS AG, priority 2015, dated 2021).

Columns and labels:
[1] = system: Puccinia recondita f. Sp. Tritici; experiment: Fungicidal activity against Puccinia recondita f. sp. tritici / wheat / leaf disc preventative (brown rust); format: in vivo; details: foliar, 200 ppm in the applied formulation, wheat leaf segments, preventative, compared to untreated control leaf disks, read-out: disease control
Procedure, shortened: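 200 ppm spray on wheat cv. Kanzler leaf segments; spore inoculation +1 day; 19° C., 75% rh, 12 h/12 h light cycle; single rating of % control vs untreated at 7 to 9 days.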

[2] = system: Puccinia recondita f. Sp. Tritici; experiment: Fungicidal activity against Puccinia recondita f. sp. tritici / wheat / leaf disc curative (brown rust); format: in vivo; details: foliar, 24 h, 200 ppm in the applied formulation, wheat leaf segments, curative (applied 1 day after inoculation), compared to untreated control leaf disks, read-out: disease control
Procedure, shortened: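 Segments of wheat cv. Kanzler were laid on agar and inoculated with a spore suspension of the rust, then held in darkness at 19° C and 75% relative humidity. One day later the water-diluted formulated compound was applied, with incubation continued under a 12 h light/dark cycle.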

Phakopsora Pachyrhizi = experiment: Fungicidal activity against Phakopsora pachyrhizi / soybean / leaf disc preventative (Asian soybean rust); format: in vivo; details: foliar, 200 ppm in the applied formulation, soybean leaf disks, compared to untreated control leaf disks, read-out: disease control
Procedure, shortened: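 Scored 12 to 14 days post-application as percent control relative to untreated check discs, rust spores were sprayed under the disc one day after compound treatment. Incubation: 20°C, 75% rh, first 24–36 h in darkness, then 12 h daily light; discs kept on water agar.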

[3] = system: Glomerella lagenarium (Colletotrichum lagenarium); experiment: Fungicidal activity against Glomerella lagenarium (Colletotrichum lagenarium) liquid culture / cucumber / preventative (anthracnose); format: cell-based; details: Colletotrichum orbiculare; 20 ppm in the applied formulation; liquid culture (PDB), growth inhibition measured photometrically after 3 to 4 days; compared to untreated control; read-out: disease control
Procedure, shortened: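 Percent activity against the untreated check was derived from photometric growth measurements made 2 to 7 days after conidia in potato dextrose broth were combined with compound at 20 ppm. Cultures were kept dark at 24 °C and 96% humidity.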

CON(Cc1ccc(-c2noc(C(F)(F)F)n2)cc1)C(=O)N(C)C [Compound 3.5, 1-methoxy-3,3-dimethyl-1-[[4-[5-(trifluoromethyl)-1,2,4-oxadiazol-3-yl]phenyl]methyl]urea]
≥ 80%: pest or weed control at 200 ppm [1] | pest or weed control at 200 ppm [2] | pest or weed control at 200 ppm (Phakopsora Pachyrhizi) | inhibition of growth at 20 ppm [3]

COC(C)C(=O)N(Cc1ccc(-c2noc(C(F)(F)F)n2)cc1)Cc1ccco1 (centres unmarked) [Compound 1.472, N-(2-furylmethyl)-2-methoxy-N-[[4-[5-(trifluoromethyl)-1,2,4-oxadiazol-3-yl]phenyl]methyl]-propanamide]
≥ 80%: pest or weed control at 200 ppm [1] | pest or weed control at 200 ppm [2] | pest or weed control at 200 ppm (Phakopsora Pachyrhizi) | inhibition of growth at 20 ppm [3]

C#CCN(Cc1ccc(-c2noc(C(F)(F)F)n2)cc1)C(=O)C1CCCC1 [Compound 1.168, N-prop-2-ynyl-N-[[4-[5-(trifluoromethyl)-1,2,4-oxadiazol-3-yl]phenyl]methyl]-cyclopentane-carboxamide]
≥ 80%: pest or weed control at 200 ppm [1] | pest or weed control at 200 ppm [2] | pest or weed control at 200 ppm (Phakopsora Pachyrhizi) | inhibition of growth at 20 ppm [3]

CON(Cc1ccc(-c2noc(C(F)(F)F)n2)cc1)C(=O)C(C)CC(C)=O (centres unmarked) [Compound 1.22, N-methoxy-2-methyl-4-oxo-N-[[4-[5-(trifluoromethyl)-1,2,4-oxadiazol-3-yl]phenyl]methyl]-pentanamide]
≥ 80%: pest or weed control at 200 ppm [1] | pest or weed control at 200 ppm [2] | pest or weed control at 200 ppm (Phakopsora Pachyrhizi) | inhibition of growth at 20 ppm [3]

CON(Cc1ccc(-c2noc(C(F)(F)F)n2)cc1)C(=O)NC1CCC1 [Compound 3.16, 3-cyclobutyl-1-methoxy-1-[[4-[5-(trifluoromethyl)-1,2,4-oxadiazol-3-yl]phenyl]methyl]urea]
≥ 80%: pest or weed control at 200 ppm [1] | pest or weed control at 200 ppm [2] | pest or weed control at 200 ppm (Phakopsora Pachyrhizi) | inhibition of growth at 20 ppm [3]

N#CCC(=O)N(Cc1ccc(-c2noc(C(F)(F)F)n2)cc1)CC(F)(F)F [Compound 1.701, 2-cyano-N-(2,2,2-trifluoroethyl)-N-[[4-[5-(trifluoromethyl)-1,2,4-oxadiazol-3-yl]phenyl]methyl]-acetamide]
≥ 80%: pest or weed control at 200 ppm [1] | pest or weed control at 200 ppm [2] | pest or weed control at 200 ppm (Phakopsora Pachyrhizi) | inhibition of growth at 20 ppm [3]

CC(C)N(Cc1ccc(-c2noc(C(F)(F)F)n2)cc1)C(=O)C1CC1(F)F (centres unmarked) [Compound 1.671, 2,2-difluoro-N-isopropyl-N-[[4-[5-(trifluoromethyl)-1,2,4-oxadiazol-3-yl]phenyl]methyl]-cyclopropane-carboxamide]
≥ 80%: pest or weed control at 200 ppm [1] | pest or weed control at 200 ppm [2] | pest or weed control at 200 ppm (Phakopsora Pachyrhizi) | inhibition of growth at 20 ppm [3]

C#CCN(Cc1ccc(-c2noc(C(F)(F)F)n2)cc1)C(=O)CCC [Compound 1.165, N-prop-2-ynyl-N-[[4-[5-(trifluoromethyl)-1,2,4-oxadiazol-3-yl]phenyl]methyl]-butanamide]
≥ 80%: pest or weed control at 200 ppm [1] | pest or weed control at 200 ppm [2] | pest or weed control at 200 ppm (Phakopsora Pachyrhizi) | inhibition of growth at 20 ppm [3]

O=C(C1CCCO1)N(CCO)Cc1ccc(-c2noc(C(F)(F)F)n2)cc1 (centres unmarked) [Compound 1.726, N-(2-hydroxyethyl)-N-[[4-[5-(trifluoromethyl)-1,2,4-oxadiazol-3-yl]phenyl]methyl]-tetrahydrofuran-2-carboxamido]
≥ 80%: pest or weed control at 200 ppm [1] | pest or weed control at 200 ppm [2] | pest or weed control at 200 ppm (Phakopsora Pachyrhizi) | inhibition of growth at 20 ppm [3]

CC(=O)N(Cc1ccc(-c2noc(C(F)(F)F)n2)cc1)C(C)C [Compound 1.687, N-isopropyl-N-[[4-[5-(trifluoromethyl)-1,2,4-oxadiazol-3-yl]phenyl]methyl]-acetamide]
≥ 80%: pest or weed control at 200 ppm [1] | pest or weed control at 200 ppm [2] | pest or weed control at 200 ppm (Phakopsora Pachyrhizi) | inhibition of growth at 20 ppm [3]

COC(C)C(=O)N(Cc1ccc(-c2noc(C(F)(F)F)n2)c(F)c1)OC (centres unmarked) [Compound 1.783, N-[[3-fluoro-4-[5-(trifluoromethyl)-1,2,4-oxadiazol-3-yl]phenyl]methyl]-N,2-dimethoxy-propanamide]
≥ 80%: pest or weed control at 200 ppm [1] | pest or weed control at 200 ppm [2] | pest or weed control at 200 ppm (Phakopsora Pachyrhizi) | inhibition of growth at 20 ppm [3]

CCCC(=O)N(CCOC)Cc1ccc(-c2noc(C(F)(F)F)n2)cc1 [Compound 1.329, N-(2-methoxyethyl)-N-[[4-[5-(trifluoromethyl)-1,2,4-oxadiazol-3-yl]phenyl]methyl]-butanamide]
≥ 80%: pest or weed control at 200 ppm [1] | pest or weed control at 200 ppm [2] | pest or weed control at 200 ppm (Phakopsora Pachyrhizi) | inhibition of growth at 20 ppm [3]

CC(C)C(=O)N(Cc1ccc(-c2noc(C(F)(F)F)n2)cc1)C1COC1 [Compound 1.738, 2-methyl-N-(oxetan-3-yl)-N-[[4-[5-(trifiuoromethyl)-1,2,4-oxadiazol-3-yl]phenyl]methyl]-propanamide]
≥ 80%: pest or weed control at 200 ppm [1] | pest or weed control at 200 ppm [2] | pest or weed control at 200 ppm (Phakopsora Pachyrhizi) | inhibition of growth at 20 ppm [3]

CCCN(Cc1ccc(-c2noc(C(F)(F)F)n2)cc1)C(=O)C(C)CC (centres unmarked) [Compound 1.659, 2-methyl-N-propyl-N-[[4-[5-(trifluoromethyl)-1,2,4-oxadiazol-3-yl]phenyl]methyl]-butanamide]
≥ 80%: pest or weed control at 200 ppm [1] | pest or weed control at 200 ppm [2] | pest or weed control at 200 ppm (Phakopsora Pachyrhizi) | inhibition of growth at 20 ppm [3]

CCCN(Cc1ccc(-c2noc(C(F)(F)F)n2)cc1)C(=O)C1(C#N)CC1 [Compound 1.665, 1-cyano-N-propyl-N-[[4-[5-(trifluoromethyl)-1,2,4-oxadiazol-3-yl]phenyl]methyl]-cyclopropane-carboxamide]
≥ 80%: pest or weed control at 200 ppm [1] | pest or weed control at 200 ppm [2] | pest or weed control at 200 ppm (Phakopsora Pachyrhizi) | inhibition of growth at 20 ppm [3]

O=C(C1CCCO1)N(Cc1ccc(-c2noc(C(F)(F)F)n2)cc1)C1CC1 (centres unmarked) [Compound 1.145, N-cyclopropyl-N-[[4-[5-(trifluoromethyl)-1,2,4-oxadiazol-3-yl]phenyl]methyl]-tetrahydrofuran-2-carboxamide]
≥ 80%: pest or weed control at 200 ppm [1] | pest or weed control at 200 ppm [2] | pest or weed control at 200 ppm (Phakopsora Pachyrhizi) | inhibition of growth at 20 ppm [3]

CON(Cc1ccc(-c2noc(C(F)(F)F)n2)cc1)C(=O)C1(C)CC1(Cl)Cl (centres unmarked) [Compound 1.32, 2,2-dichloro-N-methoxy-1-methyl-N-[[4-[5-(trifluoromethyl)-1,2,4-oxadiazol-3-yl]phenyl]methyl]-cyclopropane-carboxamide]
≥ 80%: pest or weed control at 200 ppm [1] | pest or weed control at 200 ppm [2] | pest or weed control at 200 ppm (Phakopsora Pachyrhizi) | inhibition of growth at 20 ppm [3]

CCCN(Cc1ccc(-c2noc(C(F)(F)F)n2)cc1)C(=O)CC [Compound 1.573, N-propyl-N-[[4-[5-(trifluoromethyl)-1,2,4-oxadiazol-3-yl]phenyl]methyl]-propanamide]
≥ 80%: pest or weed control at 200 ppm [1] | pest or weed control at 200 ppm [2] | pest or weed control at 200 ppm (Phakopsora Pachyrhizi) | inhibition of growth at 20 ppm [3]

CCC(=O)N(Cc1ccc(-c2noc(C(F)(F)F)n2)cc1)C(C)C [Compound 1.589, N-isopropyl-N-[[4-[5-(trifluoromethyl)-1,2,4-oxadiazol-3-yl]phenyl]methyl]-propanamide]
≥ 80%: pest or weed control at 200 ppm [1] | pest or weed control at 200 ppm [2] | pest or weed control at 200 ppm (Phakopsora Pachyrhizi) | inhibition of growth at 20 ppm [3]

CON(Cc1ccc(-c2noc(C(F)(F)F)n2)cc1)C(=O)C1CCCC1 [Compound 1.27, N-methoxy-N-[[4-[5-(trifluoromethyl)-1,2,4-oxadiazol-3-yl]phenyl]methyl]-cyclopentane-carboxamide]
≥ 80%: pest or weed control at 200 ppm [1] | pest or weed control at 200 ppm [2] | pest or weed control at 200 ppm (Phakopsora Pachyrhizi) | inhibition of growth at 20 ppm [3]
